The values that follow come from US9889179B2, “FGF-18 compound dosing regimen” (MERCK PATENT GMBH, priority 2014, dated 2018).

Test [1] relates to medial meniscal tear in the right knee joint. The class given is in vivo, Male Lewis rats. The note with it: for swelling scores versus vehicle controls: days 24-29, 31, 36-43. The protocol:
Male Lewis rats underwent surgery to induce a medial meniscal tear in the right knee joint. Animals were dosed i.a. with FGF-18 (10 μg/joint) on days 21, 28, and 35 and dosed orally with diclofenac (either 1 mg/kg or 3 mg/kg) or vehicle on days 21-23, 28-30, and 35-37, then terminated on day 42 or day 63. Serum was collected and evaluated for alpha 2 macroglobulin (α2MG) levels on days −3, 21, 42, and 63. α2MG is an inflammation serum biomarker. The link between α2MG and inflammation has already been shown (Kuribayashi et al., 2013).

A further test relates to OA symptoms. The note with it: cited from earlier work.
The subject of the next test is RA. The note with it: human, in vivo; cited from earlier work.

Like-named read-outs stand apart in the source and are kept apart here.

Take `O=C(O)Cc1ccccc1Nc1c(Cl)cccc1Cl` [diclofenac, 2-(2,6-dichloranilino) phenylacetic acid]: the knee caliper measurements result in test [1] (diclofenac 1 mg/kg oral with FGF-18 i.a., any other time point) is reported as “not significantly affected”; in test [1] (diclofenac 1 mg/kg oral with FGF-18 i.a., day 42) it was “significantly reduced”; in test [1] (diclofenac 3 mg/kg oral with FGF-18 i.a., any other time point), “not significantly affected”; in test [1] (diclofenac 3 mg/kg oral with FGF-18 i.a., day 42) it was “significantly reduced”. Further, the “swelling scores versus vehicle controls” value in test [1] (diclofenac 1 mg/kg oral with FGF-18 i.a.) and in test [1] (diclofenac 3 mg/kg oral with FGF-18 i.a.) was “significantly reduced” throughout. In addition, the “serum α2MG levels, all groups” value in test [1] (diclofenac 1 and 3 mg/kg with FGF-18, day 63) is listed as “similar”. In addition, the “time for which effects on knee swelling were evident after the final dose of diclofenac” value in test [1] (diclofenac 1 or 3 mg/kg with FGF-18) is listed as “approximately one week”.

For “anakinra: recombinant, nonglycosylated form of human interleukin-1 receptor antagonist (IL-1Ra), SEQ ID NO: 3”, the pain versus placebo result in the test on OA symptoms (anakinra 150 mg) is recorded as “tendency toward pain reduction”. Further, in the test with OA symptoms (anakinra therapy), the “improvements in OA symptoms compared with placebo” value was “not significantly associated with improvements”. In the test with RA, the “joint damage in RA patients” value is “reduction in frequency and severity of joint damage”; the “pain in RA patients” value is “pain reduction”.
